Experimental findings from paper PMC10895674, “First-in-Class Dual EZH2-HSP90 Inhibitor Eliciting Striking Antiglioblastoma Activity In Vitro and In Vivo” (Journal of Medicinal Chemistry, 2024) are described below.

The structures appear in SMILES notation.

Test [1] deals with TMZ-resistant cells (Pt3R). As to the kind of experiment: Cell viability CCK8 assay. The class given is cell-based, human. The conditions noted are these: 72 h; for IC50: Homo sapiens, CCK8, read-out: IC50, cell growth inhibitory effects. The source says: The CCK8 reagent was purchased from TargetMOI (Wellesley Hills, MA) and used according to the manufacturer’s instruction.
Background: Formazan colour is commonly taken as a measure of viable cells.

For a further test, the system named is Pt#3-R-induced tumor. Nature of the test: In vivo anti-GBM efficacy, Pt3R xenograft. The conditions noted are these: intraperitoneally twice per week; TAZ 10 or 20 mg/kg; STA+TAZ 5+5, 10+10, 15+15 mg/kg. As to the method:
In vivo anti-GBM efficacy of compound 7 was also evaluated in this study. For the in vivo study, experimental NOD.CB17-Prkdc^scid/NCrCrl mice (8-week-old) were used and Pt3R cells (1 × 10^6) in 50 μL Dulbecco’s modified Eagle’s medium (DMEM) were injected into the back of mice. After 10 days, the tumor was detectable. […] In a nutshell, the outcome of the in vivo study ascertains that the remarkable in vitro anti-GBM activity profile of dual inhibitor 7 was translated to the in vivo potential.
Animal experiments were approved by the institutional animal care and use committee of Taipei Medical University (IACUC: LAC2022-0288). Male NOD.CB17-Prkdc^scid/NCrCrl mice (8-week-old) were purchased from BioLASCO Taiwan Co., Ltd. (Taipei, Taiwan). Pt3R cells (1 × 10^6) in 50 μL of DMEM were injected into the back of mice. Experimental mice were grouped as follows (Figure 11): DMSO (n = 5), C7–10 mg/kg (n = 4), C7–20 mg/kg (n = 6), TAZ-10 mg/kg (n = 6), TAZ-20 mg/kg (n = 8), STA-5+TAZ-5 mg/kg (n = 7), STA-10+TAZ-10 mg/kg (n = 7) and STA-15+TAZ-15 mg/kg (n = 7). After 10 days, the tumor was touchable. Mice were injected intraperitoneally with DMSO (the control group) or compounds twice per week.

A further test has as its target EZH2 (Homo sapiens, UniProt Q15910). Nature of the test: EZH2 inhibition assay (Reaction Biology Corp.). The conditions noted are these: for IC50: 10-dose IC50 mode, 3-fold serial dilution starting at 10 μM, single experiment. The class given is biochemical. As to the method: The EZH2 inhibitory ability of the synthesized adduct was assessed by Reaction Biology Corporation Malvern, PA. (http://www.reactionbiology.com).

A further test has as its target HSP90a (Homo sapiens, UniProt P07900). As to the kind of experiment: In vitro Hsp90 assay (Reaction Biology Corp.). The class given is biochemical. The conditions noted are these: for IC50: 10-dose IC50 mode, 3-fold serial dilution starting at 10 μM, single experiment, '-' read as no inhibition. As to the method: The HSP90 inhibitory activity of the synthesized adduct was assessed by Reaction Biology Corporation Malvern, PA. (http://www.reactionbiology.com).

EZH2, sequence (Q15910 whole entry): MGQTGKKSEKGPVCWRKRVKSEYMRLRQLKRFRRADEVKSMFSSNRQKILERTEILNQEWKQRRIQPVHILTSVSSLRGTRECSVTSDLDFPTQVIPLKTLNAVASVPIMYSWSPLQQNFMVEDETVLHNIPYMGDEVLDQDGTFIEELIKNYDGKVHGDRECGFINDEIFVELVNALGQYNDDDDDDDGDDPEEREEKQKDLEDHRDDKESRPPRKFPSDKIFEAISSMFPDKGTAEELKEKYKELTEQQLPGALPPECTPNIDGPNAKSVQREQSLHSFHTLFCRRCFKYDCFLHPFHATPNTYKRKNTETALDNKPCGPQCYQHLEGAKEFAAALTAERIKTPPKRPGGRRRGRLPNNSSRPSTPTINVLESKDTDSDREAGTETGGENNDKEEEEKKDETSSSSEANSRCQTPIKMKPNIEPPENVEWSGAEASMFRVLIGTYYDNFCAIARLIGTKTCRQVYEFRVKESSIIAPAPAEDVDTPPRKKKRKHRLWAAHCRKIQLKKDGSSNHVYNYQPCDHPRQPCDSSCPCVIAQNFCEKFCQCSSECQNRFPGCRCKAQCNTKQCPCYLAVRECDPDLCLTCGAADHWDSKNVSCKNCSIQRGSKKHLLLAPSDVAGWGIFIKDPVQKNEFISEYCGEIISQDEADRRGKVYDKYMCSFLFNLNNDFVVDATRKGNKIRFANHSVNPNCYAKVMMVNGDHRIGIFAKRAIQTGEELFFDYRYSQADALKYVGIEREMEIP
EZH2, sequence (O75530 whole entry partner): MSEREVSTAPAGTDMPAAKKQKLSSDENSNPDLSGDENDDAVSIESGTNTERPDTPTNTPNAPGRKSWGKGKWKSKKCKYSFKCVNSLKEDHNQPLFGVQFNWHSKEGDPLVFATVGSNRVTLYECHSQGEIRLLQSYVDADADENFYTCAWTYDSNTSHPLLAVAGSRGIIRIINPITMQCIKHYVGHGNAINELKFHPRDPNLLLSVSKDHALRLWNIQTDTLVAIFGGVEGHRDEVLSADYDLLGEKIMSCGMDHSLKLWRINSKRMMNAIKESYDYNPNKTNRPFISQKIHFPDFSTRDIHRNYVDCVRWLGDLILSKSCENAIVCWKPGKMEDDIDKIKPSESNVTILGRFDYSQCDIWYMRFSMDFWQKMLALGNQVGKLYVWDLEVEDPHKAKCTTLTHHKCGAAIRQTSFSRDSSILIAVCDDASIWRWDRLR
EZH2, sequence (Q15022 whole entry partner): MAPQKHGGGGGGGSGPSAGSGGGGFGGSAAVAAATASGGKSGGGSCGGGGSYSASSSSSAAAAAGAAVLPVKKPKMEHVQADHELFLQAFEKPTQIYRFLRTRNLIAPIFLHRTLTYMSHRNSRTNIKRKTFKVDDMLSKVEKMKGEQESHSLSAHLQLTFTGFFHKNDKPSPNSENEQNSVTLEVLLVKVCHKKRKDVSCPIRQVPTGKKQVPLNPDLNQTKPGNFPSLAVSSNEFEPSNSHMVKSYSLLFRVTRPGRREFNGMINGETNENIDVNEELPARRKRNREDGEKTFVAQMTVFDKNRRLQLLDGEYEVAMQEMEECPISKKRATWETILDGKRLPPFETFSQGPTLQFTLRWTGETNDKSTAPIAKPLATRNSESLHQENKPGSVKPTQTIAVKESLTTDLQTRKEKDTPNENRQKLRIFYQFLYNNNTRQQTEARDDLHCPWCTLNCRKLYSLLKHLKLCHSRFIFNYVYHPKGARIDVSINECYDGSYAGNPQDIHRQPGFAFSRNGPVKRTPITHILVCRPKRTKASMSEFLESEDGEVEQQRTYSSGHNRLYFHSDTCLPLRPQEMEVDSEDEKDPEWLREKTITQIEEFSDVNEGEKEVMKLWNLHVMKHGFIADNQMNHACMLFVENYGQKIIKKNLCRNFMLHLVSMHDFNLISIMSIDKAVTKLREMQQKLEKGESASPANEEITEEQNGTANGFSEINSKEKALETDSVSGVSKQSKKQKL
EZH2, sequence (Q09028 whole entry partner): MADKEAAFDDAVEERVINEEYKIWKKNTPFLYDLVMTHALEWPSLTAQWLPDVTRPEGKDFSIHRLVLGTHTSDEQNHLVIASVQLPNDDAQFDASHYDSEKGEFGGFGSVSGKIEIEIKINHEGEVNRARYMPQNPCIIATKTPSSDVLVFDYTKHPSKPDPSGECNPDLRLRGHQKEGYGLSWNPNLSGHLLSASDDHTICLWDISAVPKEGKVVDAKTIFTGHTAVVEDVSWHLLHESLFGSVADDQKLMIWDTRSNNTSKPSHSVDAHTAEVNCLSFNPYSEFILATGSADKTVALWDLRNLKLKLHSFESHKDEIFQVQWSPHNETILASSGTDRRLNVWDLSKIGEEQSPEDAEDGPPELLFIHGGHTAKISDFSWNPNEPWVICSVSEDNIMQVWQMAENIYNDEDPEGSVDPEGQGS
EZH2, sequence (Q6ZN18 whole entry partner): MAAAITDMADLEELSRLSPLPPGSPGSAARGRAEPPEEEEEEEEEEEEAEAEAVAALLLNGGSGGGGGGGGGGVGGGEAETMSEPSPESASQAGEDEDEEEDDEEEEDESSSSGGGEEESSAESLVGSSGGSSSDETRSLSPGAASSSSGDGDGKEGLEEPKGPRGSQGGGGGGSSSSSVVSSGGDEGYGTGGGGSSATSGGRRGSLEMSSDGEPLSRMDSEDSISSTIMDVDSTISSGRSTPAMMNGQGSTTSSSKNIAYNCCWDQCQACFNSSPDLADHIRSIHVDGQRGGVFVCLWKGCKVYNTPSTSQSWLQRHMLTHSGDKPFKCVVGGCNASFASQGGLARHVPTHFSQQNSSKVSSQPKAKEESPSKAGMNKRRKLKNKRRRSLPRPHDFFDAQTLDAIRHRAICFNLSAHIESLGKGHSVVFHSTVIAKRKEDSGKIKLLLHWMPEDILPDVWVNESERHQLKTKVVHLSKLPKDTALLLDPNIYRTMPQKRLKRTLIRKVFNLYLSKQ

Consider `CCN(c1cc(-c2ccc(CN3CCOCC3)cc2)cc(C(=O)NCc2c(C)cc(C)[nH]c2=O)c1C)C1CCOCC1` [Tazemetostat, reference compound], for which the “cell growth inhibitory effects (in words)” value in test [1] is recorded as “unable to exert cell growth inhibitory effects”. Further, the tumor growth result with Pt#3-R-induced tumor is “failed to suppress tumor growth”.

Consider `CCN(c1cc(-c2ccc(NC(=O)c3cc(C(C)C)c(O)cc3O)cc2)cc(C(=O)NCc2c(C)cc(C)[nH]c2=O)c1C)C1CCOCC1` [Compound 1, 4′-(2,4-Fihydroxy-5-isopropylbenzamido)-N-((4,6-dimethyl-2-oxo-1,2-dihydropyridin-3-yl)methyl)-5-(ethyl(tetrahydro-2H-pyran-4-yl)amino)-4-methyl-[1,1′-biphenyl]-3-carboxamide], for which the 50% inhibitory concentration (IC50) (as a rule, the point on the concentration scale where inhibition reaches its midpoint) against EZH2 came to 6.14 nM. Moreover, the “HSP90 inhibitory potential (in words)” value on HSP90a was “devoid of HSP90 inhibitory potential”. In test [1], the “cell growth inhibitory effects (in words)” value was “unable to exert cell growth inhibitory effects”.

On to `CCN(c1cc(-c2ccc(N(C)C(=O)c3cc(C(C)C)c(O)cc3O)cc2)cc(C(=O)NCc2c(C)cc(C)[nH]c2=O)c1C)C1CCOCC1` [Compound 3, 4′-(2,4-Dihydroxy-5-isopropyl-N-methylbenzamido)-N-((4,6-dimethyl-2-oxo-1,2-dihydropyridin-3-yl)methyl)-5-(ethyl(tetrahydro-2H-pyran-4-yl)amino)-4-methyl-[1,1′-biphenyl]-3-carboxamide], for which the results for the half-inhibitory concentration (IC50) (at EZH2; on HSP90a; in test [1]) were 7.21 nM, 343 nM and 27400 ± 1580 nM, respectively.

For `CCN(c1cc(-c2ccc(N(Cc3ccccc3)C(=O)c3cc(C(C)C)c(O)cc3O)cc2)cc(C(=O)NCc2c(C)cc(C)[nH]c2=O)c1C)C1CCOCC1` [Compound 6, 4′-(N-Benzyl-2,4-dihydroxy-5-isopropylbenzamido)-N-((4,6-dimethyl-2-oxo-1,2-dihydropyridin-3-yl)methyl)-5-(ethyl(tetrahydro-2H-pyran-4-yl)amino)-4-methyl-[1,1′-biphenyl]-3-carboxamide], the figures for the IC50 at EZH2 and on HSP90a were 11.7 nM and > 10000 nM, respectively.

For `CCN(C(=O)c1cc(C(C)C)c(O)cc1O)c1ccc(-c2cc(C(=O)NCc3c(C)cc(C)[nH]c3=O)c(C)c(N(CC)C3CCOCC3)c2)cc1` [Compound 4, N-((4,6-Dimethyl-2-oxo-1,2-dihydropyridin-3-yl)methyl)-5-(ethyl(tetrahydro-2H-pyran-4-yl)amino)-4′-(N-ethyl-2,4-dihydroxy-5-isopropylbenzamido)-4-methyl-[1,1′-biphenyl]-3-carboxamide], the IC50 was 7.35 nM at EZH2 and 823 nM against HSP90a.

For the molecule `CCCN(C(=O)c1cc(C(C)C)c(O)cc1O)c1ccc(-c2cc(C(=O)NCc3c(C)cc(C)[nH]c3=O)c(C)c(N(CC)C3CCOCC3)c2)cc1` [Compound 5, 4′-(2,4-Dihydroxy-5-isopropyl-N-propylbenzamido)-N-((4,6-dimethyl-2-oxo-1,2-dihydropyridin-3-yl)methyl)-5-(ethyl(tetrahydro-2H-pyran-4-yl)amino)-4-methyl-[1,1′-biphenyl]-3-carboxamide], the IC50 against EZH2 was 21.8 nM.

Turning to `CCN(c1cc(-c2cccc(N(Cc3ccccc3)C(=O)c3cc(C(C)C)c(O)cc3O)c2)cc(C(=O)NCc2c(C)cc(C)[nH]c2=O)c1C)C1CCOCC1` [Compound 10, 3′-(N-Benzyl-2,4-dihydroxy-5-isopropylbenzamido)-N-((4,6-dimethyl-2-oxo-1,2-dihydropyridin-3-yl)methyl)-5-(ethyl(tetrahydro-2H-pyran-4-yl)amino)-4-methyl-[1,1′-biphenyl]-3-carboxamide], the results for the IC50 on EZH2 and against HSP90a were 641 nM and 2840 nM, respectively. Moreover, the “cell growth inhibitory effects (in words)” value in test [1] was “unable to exert cell growth inhibitory effects”.

As to `CCN(C(=O)c1cc(C(C)C)c(O)cc1O)c1cccc(-c2cc(C(=O)NCc3c(C)cc(C)[nH]c3=O)c(C)c(N(CC)C3CCOCC3)c2)c1` [Compound 8, N-((4,6-Dimethyl-2-oxo-1,2-dihydropyridin-3-yl)methyl)-5-(ethyl(tetrahydro-2H-pyran-4-yl)amino)-3′-(N-ethyl-2,4-dihydroxy-5-isopropylbenzamido)-4-methyl-[1,1′-biphenyl]-3-carboxamide], the results for the IC50 (on EZH2; at HSP90a; in test [1]) were 36.6 nM, 63.6 nM and 10800 ± 1000 nM, respectively.

As for `CCCN(C(=O)c1cc(C(C)C)c(O)cc1O)c1cccc(-c2cc(C(=O)NCc3c(C)cc(C)[nH]c3=O)c(C)c(N(CC)C3CCOCC3)c2)c1` [Compound 9, 3′-(2,4-Dihydroxy-5-isopropyl-N-propylbenzamido)-N-((4,6-dimethyl-2-oxo-1,2-dihydropyridin-3-yl)methyl)-5-(ethyl(tetrahydro-2H-pyran-4-yl)amino)-4-methyl-[1,1′-biphenyl]-3-carboxamide], the results for the IC50 at EZH2 and on HSP90a were 40.1 nM and 9330 nM, respectively. Also, the “cell growth inhibitory effects (in words)” value in test [1] is listed as “unable to exert cell growth inhibitory effects”.

Molecule `CCN(c1cc(-c2cccc(NC(=O)c3cc(C(C)C)c(O)cc3O)c2)cc(C(=O)NCc2c(C)cc(C)[nH]c2=O)c1C)C1CCOCC1` [Compound 2, 3′-(2,4-Fihydroxy-5-isopropylbenzamido)-N-((4,6-dimethyl-2-oxo-1,2-dihydropyridin-3-yl)methyl)-5-(ethyl(tetrahydro-2H-pyran-4-yl)amino)-4-methyl-[1,1′-biphenyl]-3-carboxamide] yielded a half-maximal inhibitory concentration (IC50) against EZH2 of 2.06 nM. The “fold more potent in inhibiting EZH2 than counterpart 1” value at EZH2 (compound 2 vs 1) is 3 fold. At HSP90a, the “HSP90 inhibitory potential (in words)” value is “devoid of HSP90 inhibitory potential”. Besides, the “cell growth inhibitory effects (in words)” value in test [1] is on record as “unable to exert cell growth inhibitory effects”.
